Assay results: publication PMC4520562 (PLoS ONE, 2015)
Where two headings read alike, the source gives them in different places.

Assays:
[1] = target: GD H6 HA (Influenza A virus (A/chicken/Guangdong/S1311/2010(H6N6)), UniProt A0A067YZV9); settings: 2 h, pH 8.0, receptor-binding site
[2] = target: A/Taiwan/2/2013(H6N1) hemagglutinin ectodomain, trypsin-cleaved into HA1 and HA2 (influenza A virus A/Taiwan/2/2013(H6N1)); experiment: crystal structure
[3] = target: A/chicken/Guangdong/S1311/2010(H6N6) hemagglutinin ectodomain, trypsin-cleaved into HA1 and HA2 (influenza A virus A/chicken/Guangdong/S1311/2010(H6N6)); experiment: crystal structure

## CC(=O)N[C@H]1[C@H](O[C@H]2[C@@H](O)[C@@H](CO)O[C@@H](O[C@H]3[C@H](O)[C@@H](O)C(O)O[C@@H]3CO)[C@@H]2O)O[C@H](CO)[C@@H](O)[C@@H]1O[C@@H]1O[C@H](CO)[C@H](O)[C@H](O[C@]2(C(=O)O)C[C@H](O)[C@@H](NC(C)=O)[C@H]([C@H](O)[C@H](O)CO)O2)[C@H]1O (stereo partly shown) [LSTa]
[1]; crystal soaked with 5 mM LSTa, first three sugars visible
  X-ray crystal structure of complex: Gal-2 and GlcNAc-3 of the LSTa are clearly visualized in both GD and TW H6 HA

## CC(=O)N[C@H]1[C@H](O[C@H]2[C@@H](O)[C@@H](CO)O[C@@H](O[C@H]3[C@H](O)[C@@H](O)C(O)O[C@@H]3CO)[C@@H]2O)O[C@H](CO)[C@@H](O[C@@H]2O[C@H](CO[C@]3(C(=O)O)C[C@H](O)[C@@H](NC(C)=O)[C@H]([C@H](O)[C@H](O)CO)O3)[C@H](O)[C@H](O)[C@H]2O)[C@@H]1O (stereo partly shown) [LSTc]
[1]; crystal soaked with 5 mM LSTc, first two sugars visible
  X-ray crystal structure of complex: only the first two sugar rings are clearly visible in the complex structure of GD H6 HA-LSTc

## A/Taiwan/2/2013(H6N1) hemagglutinin ectodomain, trypsin-cleaved into HA1 and HA2 (domain or fragment)
[2]
  stoichiometry N: 3

## A/chicken/Guangdong/S1311/2010(H6N6) hemagglutinin ectodomain, trypsin-cleaved into HA1 and HA2 (domain or fragment)
[3]
  stoichiometry N: 3
